Series [1] can be described thus: Clearance in mouse at 3 mg/kg, iv. It counts as ADME, organism-based. As to conditions: in vivo.
Series [2] is described as follows: Tlast in mouse at 20 mg/kg, po. It counts as ADME, organism-based. As to conditions: in vivo.
Series [3] in a line: Efflux ratio of permeability basolateral to apical over apical to basolateral side in human Caco-2 cells. It counts as ADME, cell-based.
In series [4] the target is Cytochrome P450 2D6 (Homo sapiens, UniProt P10635). Briefly: Inhibition of CYP2D6 (unknown origin). It counts as ADME.
Series [5] addresses Toll-like receptor 4 (Homo sapiens, UniProt O00206). Briefly: Antagonist activity at TLR4 in human PBMC cells assessed as reduction in IL-6 level measured after 20 hrs by AlphaLISA assay. It counts as cell-based.
For series [6], the target named is T1, Toll-like receptor 9 (Mus musculus, UniProt Q9EQU3).
T1 sequence (Q9EQU3 whole entry): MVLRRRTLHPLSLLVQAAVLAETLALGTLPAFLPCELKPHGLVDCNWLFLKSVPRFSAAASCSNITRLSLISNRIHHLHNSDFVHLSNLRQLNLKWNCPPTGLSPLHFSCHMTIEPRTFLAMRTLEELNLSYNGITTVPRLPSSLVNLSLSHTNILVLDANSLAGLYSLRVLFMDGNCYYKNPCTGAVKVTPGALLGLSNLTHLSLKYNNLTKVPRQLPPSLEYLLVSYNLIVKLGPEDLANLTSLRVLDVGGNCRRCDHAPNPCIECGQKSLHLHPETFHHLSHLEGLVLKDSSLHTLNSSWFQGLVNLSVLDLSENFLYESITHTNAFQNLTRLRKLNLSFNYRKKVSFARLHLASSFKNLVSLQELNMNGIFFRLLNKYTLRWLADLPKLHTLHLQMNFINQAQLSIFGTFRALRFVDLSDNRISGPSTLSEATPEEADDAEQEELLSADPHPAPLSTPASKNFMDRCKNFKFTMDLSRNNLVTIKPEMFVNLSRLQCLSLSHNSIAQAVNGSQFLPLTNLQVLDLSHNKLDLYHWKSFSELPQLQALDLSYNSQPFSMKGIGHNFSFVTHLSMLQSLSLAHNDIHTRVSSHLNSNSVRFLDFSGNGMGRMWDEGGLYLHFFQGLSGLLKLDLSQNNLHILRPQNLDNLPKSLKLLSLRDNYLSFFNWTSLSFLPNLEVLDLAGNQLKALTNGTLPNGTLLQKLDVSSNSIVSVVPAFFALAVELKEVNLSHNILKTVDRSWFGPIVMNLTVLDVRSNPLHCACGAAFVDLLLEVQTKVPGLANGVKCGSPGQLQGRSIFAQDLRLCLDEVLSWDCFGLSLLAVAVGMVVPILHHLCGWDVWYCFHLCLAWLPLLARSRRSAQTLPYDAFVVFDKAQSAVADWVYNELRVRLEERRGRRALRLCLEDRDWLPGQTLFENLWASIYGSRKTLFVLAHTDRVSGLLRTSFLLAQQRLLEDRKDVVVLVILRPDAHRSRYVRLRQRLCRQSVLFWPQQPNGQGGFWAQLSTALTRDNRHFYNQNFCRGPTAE
Briefly: Antagonist activity at TLR9 in mouse Whole blood cell assessed as reduction in IFN-alpha level measured after 20 hrs by AlphaLISA method. It counts as tissue-based. (In general: In Alpha technology, singlet oxygen from a donor bead excites a nearby acceptor bead.)

Series [7] addresses T2, Toll-like receptor 4 (Mus musculus, UniProt Q9QUK6).
T2 sequence (Q9QUK6 whole entry): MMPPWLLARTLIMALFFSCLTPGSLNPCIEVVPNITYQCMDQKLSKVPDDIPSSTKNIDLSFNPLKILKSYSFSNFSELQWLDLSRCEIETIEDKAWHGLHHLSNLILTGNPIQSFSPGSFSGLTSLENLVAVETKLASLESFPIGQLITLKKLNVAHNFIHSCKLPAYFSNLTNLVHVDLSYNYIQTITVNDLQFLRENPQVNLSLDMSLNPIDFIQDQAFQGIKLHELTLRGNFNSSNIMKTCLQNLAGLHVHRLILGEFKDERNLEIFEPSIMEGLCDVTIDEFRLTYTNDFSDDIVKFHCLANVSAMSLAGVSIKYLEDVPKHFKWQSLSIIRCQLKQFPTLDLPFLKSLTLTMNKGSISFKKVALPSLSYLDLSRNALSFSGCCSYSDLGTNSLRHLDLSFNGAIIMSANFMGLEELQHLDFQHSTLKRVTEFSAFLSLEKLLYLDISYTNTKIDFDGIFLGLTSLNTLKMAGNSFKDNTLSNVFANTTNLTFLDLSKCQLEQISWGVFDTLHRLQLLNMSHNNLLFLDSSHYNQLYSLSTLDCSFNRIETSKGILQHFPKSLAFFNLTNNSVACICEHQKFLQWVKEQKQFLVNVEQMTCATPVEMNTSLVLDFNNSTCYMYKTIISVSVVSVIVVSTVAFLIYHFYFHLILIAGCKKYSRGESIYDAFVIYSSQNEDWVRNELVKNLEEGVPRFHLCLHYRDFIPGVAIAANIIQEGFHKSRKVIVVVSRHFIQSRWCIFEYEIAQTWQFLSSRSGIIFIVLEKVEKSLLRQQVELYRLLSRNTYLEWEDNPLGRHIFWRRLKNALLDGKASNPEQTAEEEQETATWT
Briefly: Antagonist activity at TLR4 in mouse Whole blood cell assessed as reduction in IL-6 level measured after 20 hrs by HTRF method. It counts as tissue-based. (In general: In TR-FRET formats the signal depends on donor and acceptor labels being close together.)

Series [8] has as its target Toll-like receptor 7 (Mus musculus) (UniProt P58681). Briefly: In vivo antagonist activity against TLR7 in mouse assessed as suppression of IFN alpha level at 30 mg/kg, po measured at 3 hrs by LC-MS/MS analysis.

Usually clearance stands for the rate of elimination divided by the concentration. Higher therefore signals efficient removal. Usually efflux ratio stands for the permeability from basolateral to apical divided by that in the opposite direction, in the common usage. By IC50 is commonly meant the concentration that inhibits the measured activity by half.

Cytochrome P450 2D6, sequence (P10635 whole entry): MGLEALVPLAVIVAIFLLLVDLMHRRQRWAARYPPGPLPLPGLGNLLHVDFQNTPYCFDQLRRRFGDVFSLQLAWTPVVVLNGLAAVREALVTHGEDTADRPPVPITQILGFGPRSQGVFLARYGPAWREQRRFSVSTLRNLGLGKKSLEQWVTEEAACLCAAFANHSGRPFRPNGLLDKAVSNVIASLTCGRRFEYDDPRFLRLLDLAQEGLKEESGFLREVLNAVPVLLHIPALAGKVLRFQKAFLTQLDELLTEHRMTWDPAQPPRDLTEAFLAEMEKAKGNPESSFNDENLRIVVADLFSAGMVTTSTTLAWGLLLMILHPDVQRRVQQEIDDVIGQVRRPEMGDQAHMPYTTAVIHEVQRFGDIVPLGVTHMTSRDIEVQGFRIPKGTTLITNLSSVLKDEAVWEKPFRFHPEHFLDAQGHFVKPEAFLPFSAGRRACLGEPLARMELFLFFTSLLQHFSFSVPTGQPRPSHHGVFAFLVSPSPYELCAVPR
Toll-like receptor 4 (Homo sapiens, UniProt O00206), sequence (O00206 whole entry): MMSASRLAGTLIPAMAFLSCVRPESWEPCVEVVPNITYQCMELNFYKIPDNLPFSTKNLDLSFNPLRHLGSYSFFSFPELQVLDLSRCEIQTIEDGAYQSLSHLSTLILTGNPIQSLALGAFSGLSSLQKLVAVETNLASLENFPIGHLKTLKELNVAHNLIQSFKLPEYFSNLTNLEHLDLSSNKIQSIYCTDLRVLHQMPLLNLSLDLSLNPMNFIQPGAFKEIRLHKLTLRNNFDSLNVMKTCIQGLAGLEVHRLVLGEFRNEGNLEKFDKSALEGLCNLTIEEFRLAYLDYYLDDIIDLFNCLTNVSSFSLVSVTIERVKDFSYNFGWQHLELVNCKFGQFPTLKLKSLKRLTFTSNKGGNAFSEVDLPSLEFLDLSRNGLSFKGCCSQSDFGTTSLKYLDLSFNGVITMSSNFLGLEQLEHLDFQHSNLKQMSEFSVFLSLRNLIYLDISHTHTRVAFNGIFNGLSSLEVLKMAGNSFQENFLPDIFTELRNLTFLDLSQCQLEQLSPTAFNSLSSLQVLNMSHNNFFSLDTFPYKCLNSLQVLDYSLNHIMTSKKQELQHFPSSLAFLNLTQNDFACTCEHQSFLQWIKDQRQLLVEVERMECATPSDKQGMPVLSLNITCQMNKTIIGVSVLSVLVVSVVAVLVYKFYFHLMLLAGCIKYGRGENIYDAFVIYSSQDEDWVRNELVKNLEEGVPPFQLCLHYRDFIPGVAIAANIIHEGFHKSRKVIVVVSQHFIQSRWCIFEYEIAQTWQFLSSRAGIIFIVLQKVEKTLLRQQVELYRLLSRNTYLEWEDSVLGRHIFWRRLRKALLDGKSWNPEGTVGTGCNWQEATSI

On to `Cc1cc(N2CCc3c(c(C)nn3CC34CCC(N)(CC3)CC4)C2)c2cnn(C)c2n1`, for which the clearance in series [1] came out at 24 mL/min/kg. Also, the Tlast in series [2] turned out to be 7 h. The efflux ratio in series [3] was 7.5. Further, the IC50 in series [4] was more than 25 µM.
For `Cc1cc(N2CCc3c(c(C)nn3CC34CCC(NC(=O)[C@@H]5COCCN5)(CC3)CC4)C2)c2cnn(C)c2n1` [MHV-370], the IC50 in series [5], in series [6] and in series [7] was more than 10 µM in each case. In series [8], the Activity was determined as 1347 ng/mL.

The values are drawn from ChEMBL document CHEMBL5360657, “Discovery of the TLR7/8 Antagonist MHV370 for Treatment of Systemic Autoimmune Diseases” (ACS Med Chem Lett, 2023).
